The text below walks through data of PubChem BioAssay (NCI).

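Each compound was tested at five concentrations against cells in 96-well plates for 48 hours. TGI marks complete inhibition of growth.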

Holding throughout (assay): NCI-60 cell line screen, 48 h
Assay [1] concerns 786-0 renal.
For assay [2], the system named is A549 NSCLC.
The test system of assay [3] is COLO 205 colon.
Assay [4] concerns DU-145 prostate.
Assay [5] concerns HOP-62 NSCLC.
In assay [6] the test system is HS 578T breast.
Assay [7] deals with K-562 leukemia.
In assay [8] the test system is NCI-H226 lung.
Assay [9] relates to OVCAR-5 ovarian.
Assay [10] concerns OVCAR-8 ovarian.
The test system of assay [11] is SF-268 CNS.
For assay [12], the system named is SK-OV-3 ovarian.
The subject of assay [13] is SN12C renal.
In assay [14] the test system is SNB-19 CNS.
In assay [15] the test system is SNB-75 CNS.
Assay [16] has as its system UO-31 renal.
Assay [17] relates to SF-539 CNS.
The test system of assay [18] is RXF 393 renal.

In the case of `COC(=O)C1=C(C(=O)OC)C(C(=O)c2ccc(Br)cc2)N2N=C(c3ccc(Cl)cc3)C=CC12` (stereo unspecified), the TGI in [1], in assay [2], in assay [3], in [4], in assay [5] and in [6] was over 100 µM each time. Also, the TGI in [7], in [8], in assay [9], in assay [10], in assay [11] and in assay [12] was over 100 µM throughout. Besides, the TGI in [13], in assay [14], in assay [15] and in assay [16] was over 100 µM throughout.
On to `C[n+]1c(-c2ccc(/C=N/NC(=N)N/N=C/c3ccc(-c4cn5cc(Cl)ccc5[n+]4C)cc3)cc2)cn2cc(Cl)ccc21`, for which the TGI in assay [1], in [2], in assay [3], in [5], in [6] and in [7] was over 100 µM throughout. Further, the TGI in assay [9], in assay [10], in assay [11], in assay [17], in assay [12] and in [13] was over 100 µM each time. For the same molecule, the TGI in assay [14], in assay [15] and in assay [16] was over 100 µM throughout.
Turning to `Cc1cnc2sn(-c3ccc(Oc4ccccc4)cc3)c(=O)c2c1`, the TGI in assay [1] was 30.7 µM; in assay [2] it was 46 µM; in assay [3], 47.1 µM; in [4], 37.8 µM; in assay [5] it was 36.7 µM; in assay [6], 50.9 µM. The TGI in assay [8] is 47.6 µM; in [9], 35.3 µM; in assay [10], over 100 µM; in assay [11] it was 38.2 µM; in [17], 31.7 µM; in [12], over 100 µM. Further, the TGI in assay [13] was 43 µM; in [14] it was 46 µM; in assay [15] it was 34.5 µM; in assay [16] it was 42.8 µM.
In the case of `N#CCc1n[nH]c(Cc2ccccc2)n1`, the TGI in [1], in assay [2], in assay [3], in [4], in [5] and in assay [6] was over 100 µM each time. Further, the TGI in assay [7], in assay [9], in assay [10], in assay [18], in [11] and in assay [17] was over 100 µM throughout. Moreover, the TGI in assay [12], in assay [13], in assay [14], in [15] and in assay [16] was over 100 µM in each case.
With `O=C(c1ccccc1)N1CCN(C(=S)N(C(=O)c2ccccc2)c2ccccc2)C1=S`, the TGI in [1] was 5.31 µM; in assay [2] it was 19.1 µM; in assay [3] it was 13.2 µM; in assay [4] it was 10.6 µM; in assay [5] it was 26.3 µM; in [6], over 27.1 µM. For the same molecule, the TGI in [7] was over 100 µM; in [8], 32 µM; in assay [9] it was 42.1 µM; in assay [10], 13.3 µM; in [11], 14.7 µM; in assay [17], 7.07 µM. Besides, the TGI in [12] turned out to be 30.2 µM; in assay [13] it was 12.2 µM; in assay [14] it was 26.3 µM; in assay [15], 6.56 µM; in assay [16], 6.43 µM.
Take `O=C(/C=C/c1ccc(O)cc1)c1ccc2c(c1)OCO2`: the TGI in [1] came to 57.7 µM; in [2], 44.8 µM; in assay [3], 32 µM; in assay [4], 76.7 µM; in assay [5], 38.5 µM; in assay [7] it was 81.5 µM. In addition, the TGI worked out at 34.1 µM in assay [8]; 93 µM in [9]; 29.6 µM in [10]; 38.7 µM in assay [18]; 58.5 µM in assay [11]; 26.8 µM in assay [17]. The TGI in [12] was 82.6 µM; in assay [13], 30.7 µM; in assay [14], 36.3 µM; in assay [15] it was 50.3 µM; in assay [16], 38.8 µM.
`O=[N+]([O-])C1CC/C(=N/O)c2nonc21` (stereo unspecified): the TGI in assay [1], in assay [2], in [3], in assay [4], in assay [5] and in assay [6] was over 10 µM in each case. For the same molecule, the TGI in [7], in assay [8], in assay [9], in assay [10], in assay [18] and in assay [11] was over 10 µM in each case. Also, the TGI in assay [17], in [13], in assay [14] and in [16] was over 10 µM throughout.
For the molecule `CCCCC(C#N)(OP1(=O)OC(c2ccccc2)C(C)N1C)c1ccccc1` (stereo unspecified), the TGI in assay [1] stood at 31.8 µM; in [2] it was 44.3 µM; in assay [3], 35.4 µM; in assay [4], 43.4 µM; in assay [5] it was 38.7 µM; in assay [6], 39.3 µM. In addition, the TGI in assay [7] turned out to be 44.8 µM; in [9], 32.2 µM; in [10] it was 38.8 µM; in assay [18], 33.1 µM; in assay [11], 35.9 µM; in assay [17], 31.2 µM. Also, the TGI was 43.7 µM in assay [12]; 31.3 µM in assay [13]; 36.4 µM in assay [14]; 37.3 µM in assay [15]; 31.4 µM in assay [16].
